Test results reported in BindingDB's records for PubMed 34705450 (Astex Pharmaceuticals, 2021).
pEC50, pIC50: −log10 of the molar value.

Experiments:
[1] = target: T1, Nuclear factor erythroid 2-related factor 2 (Homo sapiens, UniProt Q16236); assay: Induction of Nrf2 in human BEAS-2B cells assessed as increase in NQO1 protein level incubated for 48 hrs by MTT assay
T1 sequence (Q16236 whole entry): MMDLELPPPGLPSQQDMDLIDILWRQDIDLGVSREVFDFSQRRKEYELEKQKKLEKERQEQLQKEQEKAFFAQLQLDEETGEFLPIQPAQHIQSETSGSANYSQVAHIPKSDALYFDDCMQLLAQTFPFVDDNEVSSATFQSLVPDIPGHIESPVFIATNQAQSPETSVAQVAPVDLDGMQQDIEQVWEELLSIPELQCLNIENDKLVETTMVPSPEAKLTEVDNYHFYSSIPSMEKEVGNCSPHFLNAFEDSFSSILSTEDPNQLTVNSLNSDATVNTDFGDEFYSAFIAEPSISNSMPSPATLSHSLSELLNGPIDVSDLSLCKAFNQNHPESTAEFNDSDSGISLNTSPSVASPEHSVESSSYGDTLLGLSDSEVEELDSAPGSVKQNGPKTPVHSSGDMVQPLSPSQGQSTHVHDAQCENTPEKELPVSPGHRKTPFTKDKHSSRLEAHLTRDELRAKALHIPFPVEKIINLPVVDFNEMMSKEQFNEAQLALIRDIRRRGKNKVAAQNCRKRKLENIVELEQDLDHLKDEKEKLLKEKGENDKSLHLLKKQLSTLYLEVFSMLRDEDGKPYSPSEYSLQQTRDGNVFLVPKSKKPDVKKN

[2] = target: Kelch-like ECH-associated protein 1 (Homo sapiens, UniProt Q14145)
Kelch-like ECH-associated protein 1, sequence (Q14145 whole entry): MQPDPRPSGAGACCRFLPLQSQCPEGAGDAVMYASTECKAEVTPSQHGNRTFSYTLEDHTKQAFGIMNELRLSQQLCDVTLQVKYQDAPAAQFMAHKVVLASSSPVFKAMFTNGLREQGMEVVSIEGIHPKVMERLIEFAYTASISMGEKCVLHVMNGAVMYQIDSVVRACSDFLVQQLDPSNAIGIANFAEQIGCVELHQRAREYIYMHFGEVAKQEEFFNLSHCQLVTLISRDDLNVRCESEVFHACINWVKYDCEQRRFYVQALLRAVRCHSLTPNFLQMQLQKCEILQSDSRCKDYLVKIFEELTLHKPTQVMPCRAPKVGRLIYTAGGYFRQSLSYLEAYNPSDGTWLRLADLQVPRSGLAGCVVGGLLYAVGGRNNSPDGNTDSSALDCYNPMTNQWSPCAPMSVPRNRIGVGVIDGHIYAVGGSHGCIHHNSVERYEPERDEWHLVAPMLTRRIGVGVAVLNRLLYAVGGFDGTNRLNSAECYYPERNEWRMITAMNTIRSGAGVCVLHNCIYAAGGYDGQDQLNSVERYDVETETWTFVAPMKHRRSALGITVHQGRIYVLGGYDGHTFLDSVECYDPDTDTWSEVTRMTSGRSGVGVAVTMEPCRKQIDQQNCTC

Compound	pEC50 [1]	pIC50 [2]
CCC[C@@H]1CCCCN1C(=O)c1cccc(-c2cccc(-n3ncc(C(=O)O)c3C3CC3)c2)c1F	5.46	
CCCCC1CCCN1C(=O)C1CCCC(c2cccc(-n3ncc(C(=O)O)c3C3CC3)c2)C1 (stereo unspecified)	5.36	
CCCC1CCCCN1C(=O)c1cccc(-c2cccc(-n3ncc(C(=O)O)c3C3CC3c3cccnc3)c2)c1 (stereo unspecified)	5.49	
O=C(O)c1cnn(-c2cccc(-c3cccc(C(=O)N4CCCC5(CCCC5)C4)c3F)c2)c1C1CC1	5.43	
CCCC1CCCCN1C(=O)c1cccc(-c2cccc(-n3ncc(C(=O)O)c3C3CC3c3ccccn3)c2)c1 (stereo unspecified)	5.42	7.38
CN(C)C(=O)c1cccc(-c2cccc(-n3ncc(C(=O)O)c3C3CC3)c2)c1F	5.89	
CN(C)C(=O)c1cccc(-c2cccc(-n3ncc(C(=O)O)c3C3CC3)c2)c1	5.85	
O=C(O)c1cnn(-c2cccc(-c3cccc(C(=O)N4CCCCC4)c3F)c2)c1C1CC1	5.64	
CCC[C@H]1CCCCN1C(=O)c1cccc(-c2cccc(-n3ncc(C(=O)O)c3C3CC3)c2)c1F	5.46	
O=C(O)c1cnn(-c2cccc(-c3cccc(C(=O)N(CC4CC4)CC4CC4)c3F)c2)c1C1CC1	5.46	
O=C(O)c1cnn(-c2cccc([C@@H]3CCC[C@H](C(=O)N4CCCCC4)C3)c2)c1C1CC1	5.57	
CCCC1CCCCN1C(=O)C1CCCC(c2cccc(-n3ncc(C(=O)O)c3C3CC3)c2)C1 (stereo unspecified)	5.39	
CCC[C@@H]1CCCCN1C(=O)c1cccc(-c2cccc(-n3ncc(C(=O)O)c3[C@H]3C[C@@H]3c3cn(C)nn3)c2)c1	7.37	
CCCC1COCCN1C(=O)c1cccc(-c2cccc(-n3ncc(C(=O)O)c3C3CC3)c2)c1F (stereo unspecified)	5.60	
CCCC1CCCCN1C(=O)c1cccc(-c2cccc(-n3ncc(C(=O)O)c3C3CC3c3cn(C)nn3)c2)c1 (stereo unspecified)	6.92	
CCCC1CCCCN1C(=O)c1cccc(-c2cccc(-n3ncc(C(=O)O)c3C3CC3c3cccnn3)c2)c1 (stereo unspecified)	5.55	
CCC[C@@H]1CCCCN1C(=O)c1cccc(-c2cccc(-n3ncc(C(=O)O)c3[C@@H]3C[C@H]3c3cn(C)nn3)c2)c1	< 5.30	
CN(CC1CC1)C(=O)c1cccc(-c2cccc(-n3ncc(C(=O)O)c3C3CC3)c2)c1F	5.66	
CCCC[C@@H]1CCCN1C(=O)[C@H]1CCC[C@@H](c2cccc(-n3ncc(C(=O)O)c3C3CC3)c2)C1	5.37	
CN(C)C(=O)[C@H]1CCC[C@@H](c2cccc(-n3ncc(C(=O)O)c3C3CC3)c2)C1	5.77	
